Three molecules from US20220089541A1, “Compounds for the Treatment of Kinase-Dependent Disorders” (Exelixis, Inc., priority 2019, published 2022) can be followed below.

In general, IC50 refers to the point on the concentration scale where inhibition reaches its midpoint. By half-life is commonly meant how long it takes for the measured level to halve. A low value points to rapid decline.

Some results are limits rather than exact numbers.

The conditions of series [1]: microsomes, pH 7.4.
Description: (§1) Liver microsomes tissue fractions were used for in vitro assessment of metabolic stability of compounds by cytochrome P450 (CYP450) (for example, CYP3A4, CYP2C9) mediated phase I oxidation, and metabolism through other pathways. Human, mouse, rat, and dog liver microsomes tissue fractions were obtained from Corning Gentest and BioreclamationIVT.
(§2) The assay was carried out in 96-well microtiter plates. Compounds were incubated (N=l) at 37° C. in the presence of liver microsomes. Reaction mixtures (25 μL) contained a final concentration of 1 μM test compound, 0.5 mg/mL liver microsomes (LM) protein, and 1 mM NADPH in 100 mM potassium phosphate, pH 7.4 buffer with 3.3 mM MgCl2. The extent of metabolism was calculated as the disappearance of the test compound, compared to the 0-min control reaction incubations. Verapamil was included as a positive control to verily assay performance.
(§3) At each of the four time points, 150 μL of quench solution (100% acetonitrile with 0.1% formic acid) with internal standard (bucetin for positive ESI mode) was transferred to each well. Plates were sealed and centrifuged at 10° C. for 15 minutes at 4000 rpm. The supernatant was transferred to fresh plates for LC/MS/MS analysis.
(§4) All samples were analyzed on LC/MS/MS using an AB Sciex API 4000 instrument, coupled to a Shimadzu LC-20AD LC Pump system. Analytical samples were separated using a Waters Atlantis T3 dC18 reverse phase HPLC column (20 mm×2.1 mm) at a flow rate of 0.5 mL/min. The mobile phase consisted of 0.1% formic acid in water (solvent A) and 0.1% formic acid in 100% acetonitrile (solvent B).
For series [2] the following is noted: microsomes, pH 7.4. The source holds these as a separate data set.
Description: as §1, §2, §3, §4
For series [3] the following is noted: microsomes, pH 7.4. The source holds these as a separate data set.
Description: as §1, §2, §3, §4
The target in another series is T1, Met (Homo sapiens, UniProt P08581).
T1 construct: host or cells: PC-3 prostate cancer cells
T1 sequence (P08581 25-1390): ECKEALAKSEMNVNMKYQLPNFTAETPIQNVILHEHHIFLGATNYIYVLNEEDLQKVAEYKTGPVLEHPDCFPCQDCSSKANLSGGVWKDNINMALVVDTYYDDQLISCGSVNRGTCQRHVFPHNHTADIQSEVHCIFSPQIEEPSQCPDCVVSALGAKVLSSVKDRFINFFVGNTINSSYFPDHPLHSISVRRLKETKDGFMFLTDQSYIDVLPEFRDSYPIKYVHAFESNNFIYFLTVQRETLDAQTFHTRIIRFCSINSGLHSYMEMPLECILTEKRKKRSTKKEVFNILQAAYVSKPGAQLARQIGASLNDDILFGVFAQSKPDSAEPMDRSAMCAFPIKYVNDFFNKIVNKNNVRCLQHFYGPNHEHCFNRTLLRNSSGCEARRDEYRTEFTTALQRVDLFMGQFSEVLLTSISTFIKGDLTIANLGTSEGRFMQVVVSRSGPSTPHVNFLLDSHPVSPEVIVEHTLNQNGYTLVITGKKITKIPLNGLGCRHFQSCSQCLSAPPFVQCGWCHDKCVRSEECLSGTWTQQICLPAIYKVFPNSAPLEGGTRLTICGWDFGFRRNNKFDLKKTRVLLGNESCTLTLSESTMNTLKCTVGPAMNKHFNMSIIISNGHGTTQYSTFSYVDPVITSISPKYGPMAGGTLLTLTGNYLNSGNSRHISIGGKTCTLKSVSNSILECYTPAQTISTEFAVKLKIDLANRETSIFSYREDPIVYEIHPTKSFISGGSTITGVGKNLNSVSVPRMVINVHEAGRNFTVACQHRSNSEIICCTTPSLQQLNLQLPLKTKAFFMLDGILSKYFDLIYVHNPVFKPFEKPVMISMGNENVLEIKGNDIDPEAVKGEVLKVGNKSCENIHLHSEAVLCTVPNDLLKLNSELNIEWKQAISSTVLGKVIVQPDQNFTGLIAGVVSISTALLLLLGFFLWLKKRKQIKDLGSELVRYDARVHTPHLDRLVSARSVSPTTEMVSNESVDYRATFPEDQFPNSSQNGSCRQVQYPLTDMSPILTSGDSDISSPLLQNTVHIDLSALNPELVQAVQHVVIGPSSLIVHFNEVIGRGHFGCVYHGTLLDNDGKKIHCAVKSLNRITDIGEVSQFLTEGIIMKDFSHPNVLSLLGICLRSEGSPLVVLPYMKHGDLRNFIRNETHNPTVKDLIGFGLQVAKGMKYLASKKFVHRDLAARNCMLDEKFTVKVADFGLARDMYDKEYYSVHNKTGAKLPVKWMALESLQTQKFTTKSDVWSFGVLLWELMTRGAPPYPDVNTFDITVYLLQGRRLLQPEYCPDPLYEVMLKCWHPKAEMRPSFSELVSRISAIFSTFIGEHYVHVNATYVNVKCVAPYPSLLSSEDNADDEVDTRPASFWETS
Nature of the series: Met autophosphorylation ELISA in PC-3 cells. In kind it is cell-based. Particulars: PC-3 prostate cancer cells, HGF-stimulated, phospho-Met ELISA, 1 h compound incubation; read-out: c-Met IC50. How it is done:
Example B: Met Autophosphorylation ELISA in PC-3 Cells
PC-3 prostate cancer cells (ATCC #CRL-1435) were seeded at 4×10^4 cells/well onto 24-well plates (Greiner #662165), in DMEM (Thermo Fisher #11995-040) containing 10% FBS (Thermo Fisher #26140-079), 1% MEM NEAA (Thermo Fisher #11140-050), 1% GlutaMax (Thermo Fisher #35050-061), and 1% Penicillin Streptomycin (Thermo Fisher #15140-122). PC-3 cells were incubated at 37° C., 5% CO2 for 24 h and then starved for 3 h in serum-free medium. Test compounds were serially diluted to produce an 8-point dose curve in fresh serum-free medium to a final concentration of 0.3% DMSO (vehicle) and added to the cells and incubated for 1 h. Cells were then stimulated with 100 ng/mL recombinant human HGF (R&D Systems #294-HG-250) for 10 min, washed with cold PBS, and immediately lysed with 130 μL of cold IX lysis buffer [20 mM Tris, 137 mM sodium chloride, 2 mM EDTA, 10% glycerol, 1% NP-40 alternative, 1 mM activated sodium orthovanadate, 1 mM PefaBloc SC (Sigma-Aldrich #11429868001), protease/phosphatase inhibitor tablet (Thermo Fisher #A32959)]. Lysates were clarified by centrifugation and 100 μL/well added into the PathScan phospho-Met (panTyr) Sandwich ELISA (Cell Signaling Technology #7333). Assay was performed according to manufacturer's instructions. Positive control wells (100% activity) contained HGF-stimulated, DMSO-treated cell lysates. Negative control wells (0% activity) contained HGF-stimulated, reference inhibitor-treated cell lysates. IC50 values were calculated by nonlinear regression analysis using a 4-parameter logistic curve fit in ActivityBase XE (IDBS).
For orientation: In an ELISA, binding on a coated surface is turned into a signal by an enzyme label.

The next series addresses T2, KDR (Homo sapiens, UniProt P35968).
T2 construct: host or cells: HUVEC (human umbilical vein endothelial cells)
Kind of series: KDR autophosphorylation ELISA in HUVEC cells. Type of series: cell-based. Conditions: VEGF165-stimulated, phospho-KDR ELISA, 1 h compound incubation. The method, then: Example C: KDR Autophosphorylation ELISA in HUVEC Cells
umbilical vein endothelial cells or HUVEC (Lonza #C2519A) were seeded at 2×10^4 cells/well onto 96-well plates (Corning #3904), in EGM-2 growth medium (Lonza #CC-3162) containing 1% Penicillin Streptomycin (Thermo Fisher #15140-122). HUVEC cells were incubated at 37° C., 5% CO2 for 24 h and then starved for 24 h in serum-free EBM-2 basal medium (Lonza #CC-3156) containing 1% Penicillin Streptomycin. Test compounds were serially diluted to produce an 8-point dose curve in fresh serum-free medium to a final concentration of 0.3% DMSO (vehicle) and added to the cells and incubated for 1 h. Cells were then stimulated with 100 ng/mL recombinant human VEGF165 (R&D Systems #293-VE-500) for 5 min, washed with cold PBS, and immediately lysed with 130 μL of cold IX lysis buffer [20 mM Tris, 137 mM sodium chloride, 2 mM EDTA, 10% glycerol, 1% NP-40 alternative, 1 mM activated sodium orthovanadate, 1 mM PefaBloc SC (Sigma-Aldrich #11429868001), protease/phosphatase inhibitor tablet (Thermo Fisher #A32959)]. Lysates were collected and 100 μL/well added into the human phospho-KDR DuoSet IC ELISA (R&D Systems #DYC 1766-2). Assay was performed according to manufacturer's instructions and sample phospho-KDR concentrations were extrapolated using human phospho-KDR control (R&D Systems #841421) as a standard. Positive control wells (100% activity) contained VEGF165-stimulated, DMSO-treated cell lysates. Negative control wells (0% activity) contained non-stimulated cell lysates. IC50 values were calculated by nonlinear regression analysis using a 4-parameter logistic curve fit in ActivityBase XE (IDBS).

Series [4] can be described thus: Microsomal assay, rat liver microsome stability. Conditions: liver microsomes, pH 7.4. A general note: Liver microsomes are a subcellular fraction often used to study metabolism.
Description: as §1, §2, §3, §4
Series [5] in a line: Microsomal assay, human liver microsome stability. Conditions: liver microsomes, pH 7.4.
Description: as §1, §2, §3, §4
Series [6] can be described thus: Microsomal assay, mouse liver microsome stability. Conditions: liver microsomes, pH 7.4.
Description: as §1, §2, §3, §4
A further series concerns the target T3, AXL (Homo sapiens, UniProt P30530).
T3 construct: host or cells: A-172 glioblastoma cells
T3 sequence (P30530 26-894): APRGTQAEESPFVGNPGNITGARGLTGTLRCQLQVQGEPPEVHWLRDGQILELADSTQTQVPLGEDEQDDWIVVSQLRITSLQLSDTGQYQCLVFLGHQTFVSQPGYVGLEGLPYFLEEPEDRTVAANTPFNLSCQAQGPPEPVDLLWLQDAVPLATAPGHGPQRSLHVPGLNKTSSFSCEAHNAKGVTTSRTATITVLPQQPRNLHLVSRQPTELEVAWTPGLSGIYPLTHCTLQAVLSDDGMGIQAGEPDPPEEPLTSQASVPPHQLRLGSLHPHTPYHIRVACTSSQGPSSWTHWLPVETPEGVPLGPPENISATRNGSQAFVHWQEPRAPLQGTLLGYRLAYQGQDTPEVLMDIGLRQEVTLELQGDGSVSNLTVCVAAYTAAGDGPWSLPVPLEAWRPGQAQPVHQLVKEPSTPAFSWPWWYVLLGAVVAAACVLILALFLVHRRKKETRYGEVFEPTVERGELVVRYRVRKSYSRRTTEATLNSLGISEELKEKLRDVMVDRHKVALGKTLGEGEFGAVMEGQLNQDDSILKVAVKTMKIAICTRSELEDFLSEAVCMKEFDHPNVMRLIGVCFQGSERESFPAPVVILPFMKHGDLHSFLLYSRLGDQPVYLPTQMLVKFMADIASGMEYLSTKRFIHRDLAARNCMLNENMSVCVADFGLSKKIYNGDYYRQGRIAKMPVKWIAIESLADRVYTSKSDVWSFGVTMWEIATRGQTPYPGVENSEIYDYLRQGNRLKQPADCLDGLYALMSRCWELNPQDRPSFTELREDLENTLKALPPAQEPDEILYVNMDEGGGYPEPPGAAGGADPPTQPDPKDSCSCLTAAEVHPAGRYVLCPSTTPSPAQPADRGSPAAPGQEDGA
Kind of series: AXL autophosphorylation ELISA in A-172 cells. Type of series: cell-based. Conditions: A-172 glioblastoma cells, Gas6-stimulated, phospho-AXL ELISA, 1 h compound incubation. The method, then: Example A: AXL Autophosphorylation ELISA in A-172 Cells
A-172 glioblastoma cells (ATCC #CRL-1620) were seeded at 2.5×10^5 cells/well onto 24-well plates (Greiner #662165), in DMEM (Thermo Fisher #11995-040) containing 10% FBS (Thermo Fisher #26140-079), 1% MEM NEAA (Thermo Fisher #11140-050), 1% GlutaMax (Thermo Fisher #35050-061), and 1% Penicillin Streptomycin (Thermo Fisher #15140-122). A-172 cells were incubated at 37° C., 5% CO2 for 24 h and then starved for 24 h in serum-free medium. Test compounds were serially diluted to produce an 8-point dose curve in fresh serum-free medium to a final concentration of 0.3% DMSO (vehicle) and added to the cells and incubated for 1 h. Cells were then stimulated with 1 μg/mL recombinant human Gas6 (R&D Systems #885-GSB-500) for 15 min, washed with cold PBS, and immediately lysed with 150 μL of cold IX lysis buffer [20 mM Tris, 137 mM sodium chloride, 2 mM EDTA, 10% glycerol, 1% NP-40 alternative, 1 mM activated sodium orthovanadate, 1 mM PefaBloc SC (Sigma-Aldrich #11429868001), protease/phosphatase inhibitor tablet (Thermo Fisher #A32959)]. Lysates were collected and 100 μL/well added into the human phospho-AXL DuoSet IC ELISA (R&D Systems #DYC2228-2). Assay was performed according to manufacturer's instructions and sample phospho-AXL concentrations were extrapolated using human phospho-AXL control (R&D Systems #841645) as a standard. Positive control wells (100% activity) contained Gas6-stimulated, DMSO-treated cell lysates. Negative control wells (0% activity) contained Gas6-stimulated, reference inhibitor-treated cell lysates. IC50 values were calculated by nonlinear regression analysis using a 4-parameter logistic curve fit in ActivityBase XE (IDBS).

T2 sequence (P35968 20-1356): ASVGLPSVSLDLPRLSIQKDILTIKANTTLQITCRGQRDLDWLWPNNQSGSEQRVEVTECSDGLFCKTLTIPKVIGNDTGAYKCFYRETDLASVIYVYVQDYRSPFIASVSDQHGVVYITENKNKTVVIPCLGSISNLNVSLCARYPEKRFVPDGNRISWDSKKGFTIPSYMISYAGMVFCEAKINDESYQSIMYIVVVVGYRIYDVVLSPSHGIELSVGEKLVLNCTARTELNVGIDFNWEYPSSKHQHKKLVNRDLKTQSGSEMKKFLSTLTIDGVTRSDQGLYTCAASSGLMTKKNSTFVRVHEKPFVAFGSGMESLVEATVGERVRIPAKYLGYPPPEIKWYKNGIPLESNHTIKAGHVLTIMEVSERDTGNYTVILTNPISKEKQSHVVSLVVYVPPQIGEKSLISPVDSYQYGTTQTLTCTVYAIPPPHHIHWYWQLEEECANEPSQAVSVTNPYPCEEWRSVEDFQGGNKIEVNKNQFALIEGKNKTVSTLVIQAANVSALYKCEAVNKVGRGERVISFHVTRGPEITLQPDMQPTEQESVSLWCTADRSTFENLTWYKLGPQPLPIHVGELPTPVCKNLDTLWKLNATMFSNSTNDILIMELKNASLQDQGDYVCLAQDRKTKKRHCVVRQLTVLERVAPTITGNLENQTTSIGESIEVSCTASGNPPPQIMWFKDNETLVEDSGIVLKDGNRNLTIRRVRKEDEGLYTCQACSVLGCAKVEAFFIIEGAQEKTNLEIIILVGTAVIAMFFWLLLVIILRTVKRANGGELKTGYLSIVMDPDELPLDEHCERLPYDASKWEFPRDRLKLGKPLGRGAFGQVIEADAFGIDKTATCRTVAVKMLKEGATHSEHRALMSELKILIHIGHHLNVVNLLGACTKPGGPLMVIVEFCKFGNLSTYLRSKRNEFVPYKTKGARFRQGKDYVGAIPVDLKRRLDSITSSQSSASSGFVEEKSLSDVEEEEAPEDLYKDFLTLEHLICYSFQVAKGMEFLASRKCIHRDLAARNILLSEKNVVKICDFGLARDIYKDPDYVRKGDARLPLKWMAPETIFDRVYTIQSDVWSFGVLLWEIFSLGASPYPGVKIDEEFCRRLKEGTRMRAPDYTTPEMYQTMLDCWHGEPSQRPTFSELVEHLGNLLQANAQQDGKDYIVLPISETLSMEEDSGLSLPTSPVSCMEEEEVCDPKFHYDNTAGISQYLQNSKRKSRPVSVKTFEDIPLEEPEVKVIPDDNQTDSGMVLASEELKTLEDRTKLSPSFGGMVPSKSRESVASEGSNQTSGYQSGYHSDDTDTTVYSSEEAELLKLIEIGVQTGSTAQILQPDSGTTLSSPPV

“1-N-[4-(6,7-Dimethoxyquinolin-4-yl)oxyphenyl]-1-N′-(4-fluorophenyl)-1-N′-(methoxymethyl)cyclopropane-1,1-dicarboxamide [Compound 49]”: in [1], the “Human Liver Microsome Stability CLint (μL/min/million cells)” value was found to be 1052 and the “Human Liver Microsome Stability t½” value is 1.3 min. In series [2], the “Mouse Liver Microsome Stability CLint (μL/min/million cells)” value came out at 928 and the “Mouse Liver Microsome Stability t½” value turned out to be 1.49 min. Besides, in series [3], the “Rat Liver Microsome Stability CLint (μL/min/million cells)” value is given as 1028 and the “Rat Liver Microsome Stability t½” value came out at 1.35 min.

As for `COc1cc2c(Oc3ccc(NC(=O)C4(C(=O)N(C)c5ccc(F)cc5)CC4)cc3F)ccnc2cc1OCCCN1CCOCC1` [Compound 11, N-(3-Fluoro-4-((6-methoxy-7-(3-morpholinopropoxy)quinolin-4-yl)oxy)phenyl)-N-(4-fluorophenyl)-N-methylcyclopropane-1,1-dicarboxamide], the concentration for half-maximal inhibition (IC50) on Met and against KDR was greater than 300 nM throughout. In addition, the results for the half-life at 1 μM in series [4], in [5] and in [6] were 1.6 min, 1.6 min and 7.3 min, respectively.

Take `COc1cc2nccc(Oc3ccc(NC(=O)C4(C(=O)N(C)c5ccc(F)cc5)CC4)cc3F)c2nc1OC` [Compound 44, 1-N-[4-[(6,7-Dimethoxy-1,5-naphthyridin-4-yl)oxy]-3-fluorophenyl]-1-N′-(4-fluorophenyl)-1-N′-methylcyclopropane-1,1-dicarboxamide]: the IC50 on AXL, at Met and against KDR was greater than 300 nM in each case.
